Source: BindingDB's records for PubMed 20126400 (University of Oklahoma, 2010)

Assays:
[1] = target: Glutamate receptor 4 (Homo sapiens, UniProt P48058); assay: Ray2010 Assay 74
Description: (§1) Table S2 shows raw Ki data for the current study combined with data collected from the literature for the ten additional compounds.

[2] = target: Gamma-aminobutyric acid receptor subunit beta-1 (Homo sapiens, UniProt P18505); assay: Ray2010 Assay 74
Description: as §1

[3] = target: T1, 5-hydroxytryptamine receptor 2C (Homo sapiens, UniProt P28335); assay: Ray2010 Assay 74
T1 sequence (P28335 whole entry): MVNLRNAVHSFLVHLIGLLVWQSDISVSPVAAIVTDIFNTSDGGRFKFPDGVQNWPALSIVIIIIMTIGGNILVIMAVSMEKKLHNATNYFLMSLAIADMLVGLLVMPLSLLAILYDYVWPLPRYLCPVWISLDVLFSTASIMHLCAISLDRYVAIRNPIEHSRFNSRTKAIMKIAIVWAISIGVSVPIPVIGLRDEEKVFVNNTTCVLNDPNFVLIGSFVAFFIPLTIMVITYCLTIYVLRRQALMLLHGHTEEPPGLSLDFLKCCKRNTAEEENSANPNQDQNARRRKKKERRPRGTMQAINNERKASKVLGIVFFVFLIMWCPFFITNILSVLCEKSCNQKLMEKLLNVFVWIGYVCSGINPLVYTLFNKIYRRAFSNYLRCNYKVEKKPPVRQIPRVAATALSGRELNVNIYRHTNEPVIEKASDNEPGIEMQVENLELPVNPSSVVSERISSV
Description: as §1

[4] = target: T2, D(4) dopamine receptor (Homo sapiens, UniProt P21917); assay: Ray2010 Assay 34
T2 sequence (P21917 whole entry): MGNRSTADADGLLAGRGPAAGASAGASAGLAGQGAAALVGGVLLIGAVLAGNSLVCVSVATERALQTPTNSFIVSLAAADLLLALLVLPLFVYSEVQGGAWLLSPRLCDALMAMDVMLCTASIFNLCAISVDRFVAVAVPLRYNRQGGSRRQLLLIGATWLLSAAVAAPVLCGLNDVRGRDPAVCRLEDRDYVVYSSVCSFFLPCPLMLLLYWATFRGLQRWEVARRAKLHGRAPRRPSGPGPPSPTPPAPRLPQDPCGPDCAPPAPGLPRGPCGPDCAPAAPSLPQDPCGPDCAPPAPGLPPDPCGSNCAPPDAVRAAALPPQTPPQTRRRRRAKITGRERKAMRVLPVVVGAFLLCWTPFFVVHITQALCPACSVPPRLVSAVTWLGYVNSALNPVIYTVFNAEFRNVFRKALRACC
Description: spiperone cloned .

[5] = target: Cannabinoid receptor 2 (Homo sapiens, UniProt P34972); assay: Ray2010 Assay 74
Chain of Cannabinoid receptor 2 (P34972 whole entry): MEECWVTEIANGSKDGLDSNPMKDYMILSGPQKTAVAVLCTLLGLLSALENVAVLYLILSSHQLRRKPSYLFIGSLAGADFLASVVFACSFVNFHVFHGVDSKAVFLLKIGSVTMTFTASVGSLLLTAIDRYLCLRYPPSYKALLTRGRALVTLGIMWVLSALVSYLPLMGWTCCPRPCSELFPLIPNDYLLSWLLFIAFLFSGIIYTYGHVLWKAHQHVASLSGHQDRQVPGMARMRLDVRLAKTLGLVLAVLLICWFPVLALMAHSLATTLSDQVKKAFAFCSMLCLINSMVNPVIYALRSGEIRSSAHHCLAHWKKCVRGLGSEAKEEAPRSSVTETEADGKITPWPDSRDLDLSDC
Description: as §1

[6] = target: Cannabinoid receptor 1 (Homo sapiens, UniProt P21554); assay: Ray2010 Assay 74
Chain of Cannabinoid receptor 1 (P21554 whole entry): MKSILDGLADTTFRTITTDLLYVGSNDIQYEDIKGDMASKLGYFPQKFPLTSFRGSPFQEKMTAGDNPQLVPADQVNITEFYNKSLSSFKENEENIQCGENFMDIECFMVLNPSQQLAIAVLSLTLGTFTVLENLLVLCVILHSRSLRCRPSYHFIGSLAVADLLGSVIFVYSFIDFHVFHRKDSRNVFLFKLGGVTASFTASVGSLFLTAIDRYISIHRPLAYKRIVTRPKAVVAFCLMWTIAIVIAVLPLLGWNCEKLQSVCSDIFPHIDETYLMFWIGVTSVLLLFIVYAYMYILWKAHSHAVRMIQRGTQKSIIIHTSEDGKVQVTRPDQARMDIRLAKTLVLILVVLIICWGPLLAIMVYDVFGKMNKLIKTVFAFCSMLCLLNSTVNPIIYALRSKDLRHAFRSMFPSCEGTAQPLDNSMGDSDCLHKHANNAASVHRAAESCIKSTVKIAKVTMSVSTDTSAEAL
Description: as §1

[7] = target: ATP-dependent translocase ABCB1 (Homo sapiens, UniProt P08183); assay: Ray2010 Assay 74
Chain of ATP-dependent translocase ABCB1 (P08183 whole entry): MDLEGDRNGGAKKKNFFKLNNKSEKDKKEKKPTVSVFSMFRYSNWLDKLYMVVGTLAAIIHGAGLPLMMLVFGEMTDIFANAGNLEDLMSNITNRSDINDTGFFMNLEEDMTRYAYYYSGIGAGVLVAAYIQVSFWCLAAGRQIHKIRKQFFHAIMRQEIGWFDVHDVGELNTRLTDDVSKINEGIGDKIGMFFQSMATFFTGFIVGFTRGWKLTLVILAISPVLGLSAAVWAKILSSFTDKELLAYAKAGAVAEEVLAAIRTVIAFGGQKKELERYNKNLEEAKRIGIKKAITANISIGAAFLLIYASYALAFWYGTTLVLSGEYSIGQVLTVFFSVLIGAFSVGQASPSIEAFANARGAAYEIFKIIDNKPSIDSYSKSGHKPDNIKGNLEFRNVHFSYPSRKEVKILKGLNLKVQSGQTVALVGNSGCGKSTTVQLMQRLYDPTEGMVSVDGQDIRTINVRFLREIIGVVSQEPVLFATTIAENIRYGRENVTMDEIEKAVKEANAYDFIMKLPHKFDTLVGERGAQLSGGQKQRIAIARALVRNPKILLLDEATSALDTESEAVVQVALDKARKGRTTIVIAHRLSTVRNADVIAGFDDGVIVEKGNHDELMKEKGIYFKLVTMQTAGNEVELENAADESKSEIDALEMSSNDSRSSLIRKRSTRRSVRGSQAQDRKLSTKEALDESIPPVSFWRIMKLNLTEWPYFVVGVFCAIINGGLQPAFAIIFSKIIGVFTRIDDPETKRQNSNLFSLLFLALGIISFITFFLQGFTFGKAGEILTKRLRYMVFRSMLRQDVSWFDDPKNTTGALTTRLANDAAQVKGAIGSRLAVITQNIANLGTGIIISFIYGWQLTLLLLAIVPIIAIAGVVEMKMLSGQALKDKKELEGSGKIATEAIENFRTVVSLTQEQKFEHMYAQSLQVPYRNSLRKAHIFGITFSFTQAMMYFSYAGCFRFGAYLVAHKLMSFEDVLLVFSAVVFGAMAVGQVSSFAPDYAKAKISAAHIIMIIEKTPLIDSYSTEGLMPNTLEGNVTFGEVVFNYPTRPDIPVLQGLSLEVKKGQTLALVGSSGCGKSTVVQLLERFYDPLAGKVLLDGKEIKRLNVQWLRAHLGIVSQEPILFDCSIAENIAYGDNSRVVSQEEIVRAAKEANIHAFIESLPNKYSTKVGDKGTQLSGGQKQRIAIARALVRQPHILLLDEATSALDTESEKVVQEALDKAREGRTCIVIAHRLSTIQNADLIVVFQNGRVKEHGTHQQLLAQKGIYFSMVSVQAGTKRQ
Description: as §1

Chain of Gamma-aminobutyric acid receptor subunit beta-1 (P18505 whole entry): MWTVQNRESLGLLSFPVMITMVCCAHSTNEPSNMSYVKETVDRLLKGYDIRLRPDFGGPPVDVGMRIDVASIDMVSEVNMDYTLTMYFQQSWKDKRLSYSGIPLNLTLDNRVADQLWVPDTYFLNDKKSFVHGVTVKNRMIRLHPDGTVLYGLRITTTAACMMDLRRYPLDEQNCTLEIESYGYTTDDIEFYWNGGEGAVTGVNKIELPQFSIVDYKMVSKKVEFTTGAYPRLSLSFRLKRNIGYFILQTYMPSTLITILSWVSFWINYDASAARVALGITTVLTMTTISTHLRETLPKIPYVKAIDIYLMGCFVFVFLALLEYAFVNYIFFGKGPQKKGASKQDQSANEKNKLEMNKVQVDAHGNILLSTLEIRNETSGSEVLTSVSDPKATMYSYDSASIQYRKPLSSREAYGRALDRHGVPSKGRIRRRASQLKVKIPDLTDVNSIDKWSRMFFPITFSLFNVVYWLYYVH
Chain of Glutamate receptor 4 (P48058 whole entry): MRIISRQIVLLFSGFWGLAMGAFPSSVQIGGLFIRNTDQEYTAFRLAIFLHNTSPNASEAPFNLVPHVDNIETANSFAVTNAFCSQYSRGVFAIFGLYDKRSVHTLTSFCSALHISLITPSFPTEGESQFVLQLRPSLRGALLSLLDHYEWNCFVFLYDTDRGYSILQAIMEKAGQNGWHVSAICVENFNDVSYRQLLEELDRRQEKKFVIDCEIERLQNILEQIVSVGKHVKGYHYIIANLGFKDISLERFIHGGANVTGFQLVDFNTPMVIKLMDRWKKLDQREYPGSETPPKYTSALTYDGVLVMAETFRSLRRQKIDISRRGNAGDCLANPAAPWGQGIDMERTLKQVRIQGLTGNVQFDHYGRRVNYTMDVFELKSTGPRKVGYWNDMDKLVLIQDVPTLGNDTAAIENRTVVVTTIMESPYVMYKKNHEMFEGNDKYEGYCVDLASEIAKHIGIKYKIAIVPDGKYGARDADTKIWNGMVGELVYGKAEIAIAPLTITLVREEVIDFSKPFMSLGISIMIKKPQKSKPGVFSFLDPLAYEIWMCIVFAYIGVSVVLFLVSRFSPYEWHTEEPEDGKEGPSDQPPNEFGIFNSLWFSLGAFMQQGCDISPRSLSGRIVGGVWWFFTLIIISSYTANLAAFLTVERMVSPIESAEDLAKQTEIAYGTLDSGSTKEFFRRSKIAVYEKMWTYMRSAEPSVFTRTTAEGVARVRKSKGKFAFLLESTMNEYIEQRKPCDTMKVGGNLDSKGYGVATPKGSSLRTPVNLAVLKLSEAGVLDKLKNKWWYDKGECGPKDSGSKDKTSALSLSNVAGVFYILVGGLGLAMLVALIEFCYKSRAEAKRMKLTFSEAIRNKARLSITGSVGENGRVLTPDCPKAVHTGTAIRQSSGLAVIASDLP

Row | Compound | Ki [1] [µM] | Ki [2] [µM] | Ki [3] [µM] | IC50 [4] [µM] | Ki [5] [µM] | Ki [6] [µM] | Ki [7] [µM]
1 | CC[C@H]1C[C@@H]2C[C@H]3c4[nH]c5ccc(OC)cc5c4CCN(C2)[C@@H]13 | > 10 | > 10 | > 10 | > 100 | – | – | –
2 | COc1cc(CC(C)N)cc(OC)c1OC (configuration not stated) | – | – | – | – | > 10 | > 10 | > 10
